From patent publication US9878054B2, “Polypeptide and lipophilic moiety conjugate compositions, formulations, and uses related thereto” (Tufts Medical Center, Inc., priority 2012, dated 2018)
Where a SMILES comes first, the peptide text is derived from it. The star is where a group is joined. Palmitoyl = CCCCCCCCCCCCCCCC(=O)*

Legend:
[1] = test system: guinea pig platelets (ADP); experiment: Guinea pig ex vivo platelet aggregation to ADP after iv infusion; assay type: in vivo; conditions: 3 or 6 mg/kg iv, 20 μM ADP
Description: PZ-128 or 5% dextrose USP vehicle was infused for 10 min into the jugular vein of male and female guinea pigs (0.55-0.65 kg). A-C, At the 15 min time point, whole blood was collected by cardiac puncture in 100 μg/ml PPACK/4% Na-citrate (final) anti-coagulant and platelet rich plasma (PRP) prepared and aggregation measurements were performed. […] B-C, PRP obtained at the 15 min time point after infusion with vehicle, 3 mg/kg PZ-128 or 6 mg/kg PZ128 was challenged with 2.5 μM SFLLRN, 20 μM ADP or 20 μM thromboxane mimetic, U46119. Individual data points (n=3) are overlayed on bar graphs depicting mean±SD. […] Data in B-D were analyzed by the non-parametric Kruskal-Wallis test with the Dunn's multiple pairwise comparison post-test.
PZ-128 micelles were delivered by internal jugular vein infusions over 10 min.
Guinea pigs weighing 600-650 g were used for platelet aggregation experiments. PZ-128 micelles (3 or 6 mg/kg) were administered by a 10 min intravenous infusion, and blood was collected by cardiac puncture into sodium citrate (0.4% vol/vol final) 5 minutes after cessation of the infusion. PRP was prepared and PPACK added to a final concentration of 100 μg/ml. PRP was calcified with 2.5 mM CaCl2 and aggregation was performed as described above.

PAR4 = experiment: Baboon ex vivo platelet aggregation, AYPGKF (PAR4); assay type: in vivo; conditions: any dose, any time point
Description: (§1) A-C, Male baboons (10-12 kg) were administered 1, 3 or 6 mg/kg PZ-128, or 5% dextrose USP vehicle by iv infusion and blood collected into 100 μg/ml PPACK anticoagulant at 0, 1, 2, 6, or 24 h time points. Light transmission platelet aggregometry was performed with platelet rich plasma with the indicated agonists (SFLLRN for PAR1, AYPGKF for PAR4 and ADP for P2Y12 and P2Y1). Data are reported as mean±SD (n=3-7) relative to time 0 controls (0%) and were analyzed by repeated measures one-way ANOVA with Bonferroni post-test correction; *P<0.05, **P<0.01 relative to time 0. Global P values were >0.05 for 1 mg/kg, 0.004 for 3 mg/kg, <0.0001 for 6 mg/kg. D, Pharmacokinetics of 3 and 6 mg/kg 45-min iv infusions of PZ-128 in male baboons. Plasma PZ-128 levels were measured by LC/MS/MS at 9 sequential time points: baseline, 15 min, 30 min, 1 h, 2 h, 4 h, 8 h, 24 h and 48 h after the start of infusion. Open symbols indicated plasma concentrations that were under the measurement threshold (5 ng/ml).
The anti-platelet effects of PZ-128 micelles were next examined in baboons at various time points after receiving different doses of intravenous infusions. […]
Non-terminal thrombosis and platelet aggregation studies were performed on 12 healthy male baboons (Papio anubis) weighing 9-12 kg at the Oregon National Primate Research Center (ONPRC). […] Platelet counts and hematocrit were measured immediately. […]

[2] = Pharmacokinetics of PZ-128 in baboon plasma (LC/MS/MS); assay type: in vivo
Description: as §1
The maximal plasma concentration of PZ-128 was 14 μmol/L at the 6 mg/kg dose and 5.6 μmol/L for the 3 mg/kg dose. […] The pharmacokinetic and anti-platelet pharmacodynamic properties of PZ-128 micelles indicate that this lipopeptide reaches maximal activity during and immediately after intravenous infusion and is completely eliminated by the next day.
Various doses of PZ-128 micelles were infused intravenously for 45 min to baboons. At sequential time points, whole blood was drawn into 3.2% citrate buffer and immediately centrifuged at 3000 rpm for 10 min. Platelet-poor plasma (PPP) samples were harvested and stored at −80° C. PZ-128 drug levels in PPP samples were determined was using an API 4000 LC/MS/MS system (Agilux Laboratories, Worcester, Mass.).

[3] = Solubility of lyophilized PZ-128 after reconstitution (visual inspection); assay type: physicochemical
Description: Column recovered fractions containing PZ-128 ammonium salts were lyophilized by using the following procedure: 5 mL of elute from reverse phase column cartridge was place into a 15-mL vial; the sample frozen in dry ice-isopropanol bath for 5 minutes with swirling until completely frozen, the temperature should be about −35 to −45° C. and the vacuum pressure should be about 60-100×10^−3 mBar; frozen samples/vials are places in a 0.5-1 L lyophilization glass container; open the chamber to the vacuum pump where the vacuum pressure should rise and then come back to 100-200×10^−3 M Bar until drying is complete; and the sample is stored at −20° C. The product of the first PZ-128 lyophilization was dissolved in pure water and lyophilized a second time.
The different excipients listed in Table 1 were added to 10×500 μL aliquots of the fully soluble 1 mg/mL PZ-128 solution (product of the first lyophilization), mixed, froze, and lyophilization overnight. After lyophilization, the appearance of the dried lyophilizate was examined and the solubility determined after reconstitution with 100 μL water to 5 mg/mL PZ-128 salt product.
The appearances of each of the samples after a second lyophilization from water with the different excipients are listed in Table 1. […]

## CCCCCCCCCCCCCCCC(=O)N[C@@H](CCCCN)C(=O)N[C@@H](CCCCN)C(=O)N[C@@H](CO)C(=O)N[C@@H](CCCNC(=N)N)C(=O)N[C@@H](C)C(=O)N[C@@H](CC(C)C)C(=O)N[C@@H](Cc1ccccc1)C(N)=O [PZ-128, palmitate-KKSRALF-NH2] (Palmitoyl-KKSRALF-NH2)
[1]
  Effect on ex vivo aggregation to ADP: no effect
PAR4
  Inhibition of AYPGKF (PAR4) response ex vivo: no inhibition
[2]; 3 and 6 mg/kg iv infusion
  Plasma half life: 50 to 80 min
[2]; 24-48 h, measurement threshold 5 ng/ml
  Plasma level at late time points: not detectable
[2]; by 8 h
  Clearance from plasma: nearly completely cleared
[2]; male, plasma, iv, 3 and 6 mg/kg iv infusion
  half-life: 50 to 81 min
[3]; 5 mg/mL, tested formulations including 100% water
  Solubility of product of second lyophilization from pure water: did not solubilize
[3]; 100% water and 5% dextrose/water at 5 mg/mL
  Solubility of micelles after filtration and second lyophilization with ammonium acetate: readily soluble
